This note sets out measurements from patent publication US10975084B2, “KDM5 inhibitors” (Merck Sharp & Dohme Corp., priority 2016, dated 2021).

This assay addresses KDM5B (Homo sapiens (Human), UniProt Q9UGL1). Description: KDM5B TR-FRET Enzyme Activity Assay. The class given is biochemical. The settings on record: LANCE TR-FRET; 5 nM full-length recombinant KDM5B; ten point titration 100000 nM to 5.08 nM. As to the method:
KDM5B TR-FRET Enzyme Activity Assay
KDM5B enzymatic activity was determined with the LANCE (Lanthanide Chelate Excite) TR-FRET (Time-resolved fluorescence resonance energy transfer) assay. […] To each well of a white Greiner 1536 Lumitrac 1536 well-plate, 50 nL of compound (100 fold dilution in final assay volume of 5 μL) was dispensed, followed by the addition of 4 μL of 1× assay buffer (50 mM Hepes 7.3, 0.5 mM TCEP, 0.005% Brij-35, 0.02% BSA, 50 μM Na-L-Ascorbate and 2 μM AmFe(II)Sulfate) containing 5 nM of Full-length KDM5B enzyme (recombinant protein from baculovirus-transfected Sf21 cells: full-length KDM5B; MW=176.825 kDa). Following a 30 minutes compound and enzyme incubation in a humidified chamber, each reaction was initiated by the addition of 1 μL 1× assay buffer containing […] biotinylated H3K4Me3 peptide, and 500 nM α-ketoglutarate. The final reaction in each well of 5 μL consists of 5 nM KDM5B, 500 nM biotinylated-peptide, and 500 nM α-ketoglutarate. De-methylation reactions were allowed to proceed for 60 minutes. Reactions were immediately quenched by the addition of 5 uL of 2× Lance Detection Buffer (PerkinElmer) with 0.5 mM EDTA and 2 nM of Eu-anti-H3K4Me1-2 antibody, and 30 nM of Streptavidin-conjugated Dylight 650 detection reagents. After 60 minutes incubation with detection reagents, reaction plates were read on a PerkinElmer EnVision plate reader using standard TR-FRET protocol. Briefly, excitation of donor molecules (Eu-chelate-anti-H3K4Me1-2-antibody) with a laser light source at 337 nm produces energy that can be transferred to Dylight-650 acceptor molecules if this donor:acceptor pair is within close proximity. Fluorescence intensity at both 665 nm (acceptor) and 615 nm (donor) are measured and a TR-FRET ratio calculated for each well (acceptor intensity/donor intensity). IC50 values were determined by 4 parameter robust fit of TR-FRET ratio values vs. (Log 10) compound concentrations.
(In general: Time-resolved FRET reads energy transfer from a long-lived donor to a nearby acceptor.)

KDM5B, sequence (Q9UGL1 whole entry): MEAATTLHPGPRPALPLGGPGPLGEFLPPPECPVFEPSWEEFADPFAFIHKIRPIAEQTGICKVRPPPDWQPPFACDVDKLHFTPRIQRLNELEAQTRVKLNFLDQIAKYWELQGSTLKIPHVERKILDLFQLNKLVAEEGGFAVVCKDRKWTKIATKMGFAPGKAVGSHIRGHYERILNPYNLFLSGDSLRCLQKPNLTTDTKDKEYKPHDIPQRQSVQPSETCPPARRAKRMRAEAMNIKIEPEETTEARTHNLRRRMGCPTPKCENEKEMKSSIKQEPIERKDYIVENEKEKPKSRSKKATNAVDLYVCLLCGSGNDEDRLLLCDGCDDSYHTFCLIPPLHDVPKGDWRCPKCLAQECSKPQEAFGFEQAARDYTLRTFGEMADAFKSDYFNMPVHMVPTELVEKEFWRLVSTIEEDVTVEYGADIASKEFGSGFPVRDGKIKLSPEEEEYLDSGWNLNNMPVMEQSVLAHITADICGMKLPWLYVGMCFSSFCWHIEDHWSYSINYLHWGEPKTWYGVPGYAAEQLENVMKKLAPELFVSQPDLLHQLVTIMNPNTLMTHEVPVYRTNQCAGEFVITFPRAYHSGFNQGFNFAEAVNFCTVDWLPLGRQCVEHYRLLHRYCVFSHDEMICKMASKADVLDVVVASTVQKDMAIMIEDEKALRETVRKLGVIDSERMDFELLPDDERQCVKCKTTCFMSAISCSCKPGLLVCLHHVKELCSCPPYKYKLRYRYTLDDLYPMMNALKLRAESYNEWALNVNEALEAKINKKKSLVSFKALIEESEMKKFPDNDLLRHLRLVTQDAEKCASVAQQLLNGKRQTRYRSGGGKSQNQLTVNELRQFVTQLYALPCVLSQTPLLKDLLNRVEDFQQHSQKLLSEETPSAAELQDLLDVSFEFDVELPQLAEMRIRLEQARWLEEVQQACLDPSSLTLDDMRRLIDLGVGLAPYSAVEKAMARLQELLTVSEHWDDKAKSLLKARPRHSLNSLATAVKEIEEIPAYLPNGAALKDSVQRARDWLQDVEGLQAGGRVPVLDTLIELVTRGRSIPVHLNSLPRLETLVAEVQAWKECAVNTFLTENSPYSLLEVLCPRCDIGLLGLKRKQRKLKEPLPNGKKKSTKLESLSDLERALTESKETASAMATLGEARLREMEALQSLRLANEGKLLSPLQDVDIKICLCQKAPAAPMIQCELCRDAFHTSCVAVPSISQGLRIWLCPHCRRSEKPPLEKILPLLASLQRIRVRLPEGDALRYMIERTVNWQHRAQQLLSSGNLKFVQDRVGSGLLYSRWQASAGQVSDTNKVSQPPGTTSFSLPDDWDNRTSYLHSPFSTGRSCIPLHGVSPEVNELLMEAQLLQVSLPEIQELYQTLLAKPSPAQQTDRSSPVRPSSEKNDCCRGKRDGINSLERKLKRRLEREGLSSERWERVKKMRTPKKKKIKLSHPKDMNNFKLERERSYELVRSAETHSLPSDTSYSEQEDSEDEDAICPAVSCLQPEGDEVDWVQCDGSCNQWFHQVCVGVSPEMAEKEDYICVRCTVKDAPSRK

As to `O=c1cc(C(F)(F)F)[nH]c2ncnn12` [Example 8-3, 5-(trifluoromethyl)[1,2,4]triazolo[1,5-a]pyrimidin-7(4H)-one], the IC50 came out at 13.4 µM.

Consider `Cc1cc(=O)n2ncnc2[nH]1` [Example 8-4, 5-methyl-[1,2,4]triazolo[1,5-a]pyrimidin-7(4H)-one], for which the IC50 turned out to be 26.4 µM.

`O=c1cc(-c2ccccc2)[nH]c2ncnn12` [Example 8-5, 5-phenyl-[1,2,4]triazolo[1,5-a]pyrimidin-7(4H)-one]: the IC50 turned out to be 2.24 µM.

As to `CCCc1cc(=O)n2ncnc2[nH]1` [Example 8-6], the IC50 is 47.6 µM.

`COC(=O)Cc1c(C)[nH]c2ncnn2c1=O` [Example 8-7, methyl (5-methyl-7-oxo-4,7-dihydro[1,2,4]triazolo[1,5-a]pyrimidin-6-yl)acetate]: the IC50 is 21.3 µM.

For `O=c1cc(-c2ccc(F)cc2)[nH]c2ncnn12` [Example 8-8, 5-(4-fluorophenyl)[1,2,4]triazolo[1,5-a]pyrimidin-7(4H)-one], the IC50 was found to be 1.3 µM.

For `CCc1cc(=O)n2ncnc2[nH]1` [Example 8-9, 5-ethyl-[1,2,4]triazolo[1,5-a]pyrimidin-7(4H)-one], the IC50 was 21.8 µM.

For `CCOC(=O)c1[nH]c2ncnn2c(=O)c1Cl` [Example 8-10, ethyl 6-chloro-7-oxo-4,7-dihydro[1,2,4]triazolo[1,5-a]pyrimidine-5-carboxylate], the IC50 was found to be 6.28 µM.

Consider `CCOC(=O)c1[nH]c2ncnn2c(=O)c1C` [Example 8-11, ethyl 6-methyl-7-oxo-4,7-dihydro[1,2,4]triazolo[1,5-a]pyrimidine-5-carboxylate], for which the IC50 worked out at 6.75 µM.

In the case of `Cc1[nH]c2ncnn2c(=O)c1C(C)C` [Example 8-12, 5-methyl-6-(1-methylethyl)[1,2,4]triazolo[1,5-a]pyrimidin-7(4H)-one], the IC50 turned out to be 0.474 µM.

For the compound `Cn1ccc(-c2cc(=O)n3ncnc3[nH]2)n1` [Example 8-13, 5-(1-methyl-1H-pyrazol-3-yl)[1,2,4]triazolo[1,5-a]pyrimidin-7(4H)-one], the IC50 is 29.2 µM.

For `CCc1c(C(F)(F)F)[nH]c2ncnn2c1=O` [Example 8-16, 6-ethyl-5-(trifluoromethyl)[1,2,4]triazolo[1,5-a]pyrimidin-7(4H)-one], the IC50 stood at 1.59 µM.

In the case of `O=c1c(F)c(C(F)(F)F)[nH]c2ncnn12` [Example 8-17, 6-fluoro-5-(trifluoromethyl)[1,2,4]triazolo[1,5-a]pyrimidin-7(4H)-one], the IC50 worked out at 25.7 µM.

`CCc1[nH]c2ncnn2c(=O)c1C` [Example 8-18, 5-ethyl-6-methyl[1,2,4]triazolo[1,5-a]pyrimidin-7(4H)-one]: the IC50 was 31.9 µM.

As for `CC(C)n1cc(-c2cc(=O)n3ncnc3[nH]2)cn1` [Example 8-19, 5-[1-(1-methylethyl)-1H-pyrazol-4-yl][1,2,4]triazolo[1,5-a]pyrimidin-7(4H)-one], the IC50 turned out to be 1.53 µM.

On to `O=c1cc(C2CCOCC2)[nH]c2ncnn12` [Example 8-20, 5-(tetrahydro-2H-pyran-4-yl)[1,2,4]triazolo[1,5-a]pyrimidin-7(4H)-one], for which the IC50 was 81.3 µM.

`O=c1cc(-c2ccoc2)[nH]c2ncnn12` [Example 8-21, 5-furan-3-yl[1,2,4]triazolo[1,5-a]pyrimidin-7(4H)-one]: the IC50 turned out to be 4.1 µM.

As to `O=c1cc(-c2ccncc2)[nH]c2ncnn12` [Example 8-22, 5-pyridin-4-yl[1,2,4]triazolo[1,5-a]pyrimidin-7(4H)-one], the IC50 came to 18.9 µM.

For `O=c1cc(-c2ccccn2)[nH]c2ncnn12` [Example 8-23, 5-pyridin-2-yl[1,2,4]triazolo[1,5-a]pyrimidin-7(4H)-one], the IC50 is 2.42 µM.

Regarding `O=c1cc(-c2ccco2)[nH]c2ncnn12` [Example 8-24, 5-furan-2-yl[1,2,4]triazolo[1,5-a]pyrimidin-7(4H)-one], the IC50 was found to be 6.79 µM.

With `Cc1[nH]c2ncnn2c(=O)c1F` [Example 8-25, 6-fluoro-5-methyl[1,2,4]triazolo[1,5-a]pyrimidin-7(4H)-one], the IC50 amounted to 17.9 µM.

For the compound `O=c1cc(-c2ccc(Cl)cc2)[nH]c2ncnn12` [Example 8-26, 5-(4-chlorophenyl)[1,2,4]triazolo[1,5-a]pyrimidin-7(4H)-one], the IC50 was found to be 1.39 µM.

Turning to `O=c1cc(-c2ccccc2Cl)[nH]c2ncnn12` [Example 8-27, 5-(2-chlorophenyl)[1,2,4]triazolo[1,5-a]pyrimidin-7(4H)-one], the IC50 was found to be 10.1 µM.

Take `O=c1cc(-c2ccccc2F)[nH]c2ncnn12` [Example 8-28, 5-(2-fluorophenyl)[1,2,4]triazolo[1,5-a]pyrimidin-7(4H)-one]: the IC50 amounted to 5.54 µM.

For the compound `O=c1cc(-c2cccc(Cl)c2)[nH]c2ncnn12` [Example 8-29, 5-(3-chlorophenyl)[1,2,4]triazolo[1,5-a]pyrimidin-7(4H)-one], the IC50 is 2.98 µM.

Take `O=c1cc(-c2cccc(F)c2)[nH]c2ncnn12` [Example 8-30, 5-(3-fluorophenyl)[1,2,4]triazolo[1,5-a]pyrimidin-7(4H)-one]: the IC50 amounted to 2.45 µM.

In the case of `Cn1cc(-c2cc(=O)n3ncnc3[nH]2)cn1` [Example 8-31, 5-(1-methyl-1H-pyrazol-4-yl)[1,2,4]triazolo[1,5-a]pyrimidin-7(4H)-one], the half-inhibitory concentration (IC50) worked out at 3.33 µM.

Regarding `CCCc1[nH]c2ncnn2c(=O)c1-c1ccccc1` [Example 8-32, 6-phenyl-5-propyl[1,2,4]triazolo[1,5-a]pyrimidin-7(4H)-one], the IC50 turned out to be 37.6 µM.

Turning to `CC(C)c1cc(=O)n2ncnc2[nH]1` [Example 8-33, 5-(1-methylethyl)[1,2,4]triazolo[1,5-a]pyrimidin-7(4H)-one], the IC50 is 82.3 µM.

As for `CCc1c(-c2ccccc2)[nH]c2ncnn2c1=O` [Example 8-34, 6-ethyl-5-phenyl[1,2,4]triazolo[1,5-a]pyrimidin-7(4H)-one], the IC50 turned out to be 0.519 µM.

For `CC(C)c1c(-c2ccccc2)[nH]c2ncnn2c1=O` [Example 8-35, 6-(1-methylethyl)-5-phenyl[1,2,4]triazolo[1,5-a]pyrimidin-7(4H)-one], the IC50 worked out at 0.271 µM.

On to `CCc1c(C)[nH]c2ncnn2c1=O` [Example 8-36, 6-ethyl-5-methyl-[1,2,4]triazolo[1,5-a]pyrimidin-7(4H)-one], for which the IC50 was found to be 3.49 µM.

Take `CCc1c(C)[nH]c2nncn2c1=O` [Example 8-37, 6-ethyl-7-methyl[1,2,4]triazolo[4,3-a]pyrimidin-5(8H)-one]: the concentration for half-maximal inhibition (IC50) was determined as 91.7 µM.

For the compound `CC(C)c1c(-c2cnn(C)c2)[nH]c2ncnn2c1=O` [Example 8-38, 6-(1-methylethyl)-5-(1-methyl-1H-pyrazol-4-yl)[1,2,4]triazolo[1,5-a]pyrimidin-7(4H)-one], the IC50 is 0.0162 µM.

With `CC(C)(C)n1cc(-c2[nH]c3ncnn3c(=O)c2CC(F)(F)F)cn1` [Example 8-39, 5-(1-tert-butyl-1H-pyrazol-4-yl)-6-(2,2,2-trifluoroethyl)[1,2,4]triazolo[1,5-a]pyrimidin-7(4H)-one], the half-inhibitory concentration (IC50) is 0.0871 µM.

As for `O=c1c(C2CCC2)c(-c2ccc(F)cc2)[nH]c2ncnn12` [Example 8-40, 6-cyclobutyl-5-(4-fluorophenyl)[1,2,4]triazolo[1,5-a]pyrimidin-7(4H)-one], the IC50 was 1.03 µM.

As to `CC(C)n1cc(-c2[nH]c3ncnn3c(=O)c2C2CCC2)cn1` [Example 8-41, 6-cyclobutyl-5-[1-(1-methylethyl)-1H-pyrazol-4-yl][1,2,4]triazolo[1,5-a]pyrimidin-7(4H)-one], the IC50 turned out to be 0.0329 µM.

Turning to `CC(C)(C)c1c(-c2cnn(C(C)(C)C)c2)[nH]c2ncnn2c1=O` [Example 11-4, 6-tert-butyl-5-(1-tert-butyl-1H-pyrazol-4-yl)[1,2,4]triazolo[1,5-a]pyrimidin-7(4H)-one], the 50% inhibitory concentration (IC50) amounted to 0.904 µM.

Consider `CC(C)(C)c1c(-c2ccc(F)cc2)[nH]c2ncnn2c1=O` [Example 11-5, 6-tert-butyl-5-(4-fluorophenyl)[1,2,4]triazolo[1,5-a]pyrimidin-7(4H)-one], for which the IC50 was 5.4 µM.

With `Cn1cc(-c2[nH]c3ncnn3c(=O)c2C(C)(C)C)cn1` [Example 11-6, 6-tert-butyl-5-(1-methyl-1H-pyrazol-4-yl)[1,2,4]triazolo[1,5-a]pyrimidin-7(4H)-one], the IC50 came to 1.27 µM.

`CC(C)(C)c1c(-c2cnn(-c3ccccc3)c2)[nH]c2ncnn2c1=O` [Example 11-7, 6-tert-butyl-5-(1-phenyl-1H-pyrazol-4-yl)[1,2,4]triazolo[1,5-a]pyrimidin-7(4H)-one]: the IC50 was 0.772 µM.

Regarding `CC(C)c1c(-c2cnn(-c3ccccc3)c2)[nH]c2ncnn2c1=O` [Example 11-8, 6-(1-methylethyl)-5-(1-phenyl-1H-pyrazol-4-yl)[1,2,4]triazolo[1,5-a]pyrimidin-7(4H)-one], the IC50 was 0.00628 µM.

For orientation: IC50 means the point on the concentration scale where inhibition reaches its midpoint.
